Values of other authors, collected in patent US5780243A, “Methods for the quantitative analysis of organic compounds” (Thaco Research, Ltd., priority 1996, dated 1998).

## CNC1C(O)C(NC)C2OC3(O)C(=O)CC(C)OC3OC2C1O (stereo not shown) [spectinomycin, decahydro-4a,7,9-trihydroxy-2-methyl-6,8-bis(methylamino)-4H-pyrano[2,3-b][1,4]benzodioxin-4-one]
  solubility in organic solvents: virtual insolubility
